The subject of one assay is Ba/F3-CCDC6-RET. Put plainly: Cell proliferation (Celltiter-Glo), Ba/F3-CCDC6-RET. It counts as cell-based. The settings on record: BaF3/CCDC6-RET, anti-proliferative, read-out: IC50 (nM, mean ± SD). The procedure:
(§1) Ba/F3-KIF5B-RET, Ba/F3-CCDC6-RET, Ba/F3-KIF5B-RET-V804L, Ba/F3-KIF5B-RET-V804M, Ba/F3-KIF5B-RET-G810R, and Ba/F3-KIF5B-RET-G810S cells were provided by Kyinno Biotechnology Co., Ltd. The cells were cultured in RPMI 1640 (Biological Industries, Israel) supplemented with 10% fetal bovine serum (Biological Industries, Israel) and 1% Penicillin/Streptomycin solution (Corning, United States). They were incubated at 37 °C in a humidified atmosphere containing 5% CO2, and cell proliferation was evaluated using the Celltiter-Glo luminescent cell viability assay.

For a further assay, the system named is Ba/F3-KIF5B-RET. Put plainly: Cell proliferation (Celltiter-Glo), Ba/F3-KIF5B-RET. In kind it is cell-based. The following applies: anti-proliferative, read-out: IC50 (nM, mean ± SD). The procedure:
as §1

The test system of the next assay is Ba/F3-KIF5B-RET-V804L. The assay is described as follows: Cell proliferation (Celltiter-Glo), Ba/F3-KIF5B-RET-V804L. In kind it is cell-based. The following applies: anti-proliferative, read-out: IC50 (nM, mean ± SD). The procedure:
as §1

The next assay relates to Ba/F3-KIF5B-RET-G810R. The assay is described as follows: Cell proliferation (Celltiter-Glo), Ba/F3-KIF5B-RET-G810R. It counts as cell-based. The following applies: anti-proliferative, read-out: IC50 (nM, mean ± SD). The procedure: as §1
A general note: Cellular ATP, detected with luciferase, serves as a proxy for viable cell number.

The subject of assay [1] is Ba/F3-KIF5B-RET-G810S tumor. Put plainly: Ba/F3-KIF5B-RET-G810S xenograft mouse model. In kind it is in vivo. The settings on record: 10 mg/kg p.o. BID, NOD SCID mice.
Another assay deals with Ba/F3-KIF5B-RET-G810S. The assay is described as follows: Cell proliferation (Celltiter-Glo), Ba/F3-KIF5B-RET-G810S. In kind it is cell-based. The following applies: anti-proliferative, read-out: IC50 (nM, mean ± SD). The protocol: as §1
A further assay has as its system Ba/F3-KIF5B-RET-V804M. The assay is described as follows: Cell proliferation (Celltiter-Glo), Ba/F3-KIF5B-RET-V804M. In kind it is cell-based. The settings on record: anti-proliferative, read-out: IC50 (nM, mean ± SD). The procedure: as §1
Assay [2] relates to Ba/F3-KIF5B-RET-V804L tumor. The assay is described as follows: Ba/F3-KIF5B-RET-V804L xenograft mouse model. The following applies: 3 mg/kg p.o. BID, NPSG mice. In kind it is in vivo.
The next assay has as its system Ba/F3-KIF5B-RET tumor. Put plainly: Ba/F3-KIF5B-RET xenograft mouse model. It counts as in vivo. The following applies: 3 mg/kg p.o. BID, B-NDG mice.
The subject of assay [3] is Ba/F3-KIF5B-RET-G810R tumor. The assay is described as follows: Ba/F3-KIF5B-RET-G810R xenograft mouse model. The following applies: 10 mg/kg p.o. BID days 0–16, NOD SCID mice.

For orientation: IC50 means the concentration that gives 50% inhibition. By TGI is commonly meant how far tumour growth fell short of that in controls. Read a low TGI as a weaker effect on the tumour. `COc1ccc(CN2C3CC2CN(c2ccc(-c4cc(OCC(C)(C)O)cn5ncc(C#N)c45)cn2)C3)cn1` [Selpercatinib]: the IC50 in the assay on Ba/F3-CCDC6-RET worked out at 70.3 ± 0.91 nM; in the assay with Ba/F3-KIF5B-RET, 11.5 ± 4.31 nM; in the assay with Ba/F3-KIF5B-RET-V804L, 16.2 ± 3.22 nM; in the assay on Ba/F3-KIF5B-RET-G810R, 734 ± 56.1 nM; in the assay with Ba/F3-KIF5B-RET-G810S, 125 ± 19.7 nM; with Ba/F3-KIF5B-RET-V804M, 65.3 ± 20.7 nM. In addition, the results for the TGI in assay [1], in [2] and in assay [3] were 82.15%, 79.48% and 35.37%, respectively. Besides, in the assay on Ba/F3-KIF5B-RET tumor, the “tumor growth inhibition (TGI)” value is given as 57.06%.
